Source: patent publication US9187472B2 (AbbVie Inc., priority 2012, dated 2015)

Assays:
[1] = tested on: PC3 cells; experiment: NAMPT Cell Proliferation Assay; format: cell-based; details: Homo sapiens, PC-3, 120 h, 5 days incubation, cell viability by Cell Titer Glo
Summary of the method: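 Seed PC3 at 500 cells/well (RPMI, 10% HI-FBS), attach overnight; add compound, 10-fold series 10 μM → 1×10^−5 μM; incubate 5 d, 37° C/5% CO2; luminescent viability readout; fit % inhibition sigmoidally for IC50.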

[2] = biological target: NAMPT (human, recombinant, C-terminally His-tagged) (Homo sapiens, UniProt P43490); experiment: Time-Resolved Fluorescence Resonance Energy Transfer (TR-FRET) Binding Assay of NAMPT; details: without substrates; 6.8 nM NAMPT, 200 nM probe, 3 hours equilibration
Chain of NAMPT (human, recombinant, C-terminally His-tagged) (P43490 whole entry): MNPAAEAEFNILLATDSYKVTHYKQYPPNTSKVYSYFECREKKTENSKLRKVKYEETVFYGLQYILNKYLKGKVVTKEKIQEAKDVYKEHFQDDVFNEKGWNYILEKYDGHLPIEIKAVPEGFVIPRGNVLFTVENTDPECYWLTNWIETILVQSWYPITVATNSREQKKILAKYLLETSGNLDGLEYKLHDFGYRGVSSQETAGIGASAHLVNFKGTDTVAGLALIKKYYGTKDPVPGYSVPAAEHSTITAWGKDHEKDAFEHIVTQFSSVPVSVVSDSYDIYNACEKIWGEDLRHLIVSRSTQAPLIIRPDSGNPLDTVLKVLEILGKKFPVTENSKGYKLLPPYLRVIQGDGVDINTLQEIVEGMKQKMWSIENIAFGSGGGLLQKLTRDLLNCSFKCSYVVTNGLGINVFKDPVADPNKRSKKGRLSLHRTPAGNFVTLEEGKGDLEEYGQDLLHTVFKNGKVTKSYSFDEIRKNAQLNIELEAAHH
Summary of the method: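 In a displacement format, the nicotinamide-site tracer at 200 nM competed with test compound for 6.8 nM enzyme detected via 1 nM terbium anti-His antibody; incubation lasted 3 hours at room temperature in 50 mM HEPES pH 7.5, 100 mM NaCl. Normalized 520/495 nm emission ratios gave IC50 values.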

[3] = biological target: NAMPT (Homo sapiens, UniProt P43490); experiment: TR-FRET Binding Assay of NAMPT with PRPP; details: with 200 μM PRPP and 2.5 mM ATP; 2 nM NAMPT, 2 nM probe, 16 hours equilibration
Chain of NAMPT (P43490 whole entry): as above
Summary of the method: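 Substrate-containing variant: 200 μM PRPP plus 2.5 mM ATP are added to 2 nM NAMPT and 2 nM probe, with a 16-hour incubation ahead of TR-FRET reading.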

Row | SMILES | IC50 [1] | IC50 [2] | IC50 [3]
1 | CCC(C)(C)C(=O)N1CCC(c2ccc(C(=O)NCc3ccn4ccnc4c3)cc2)CC1 [Example 501, 4-[1-(2,2-dimethylbutanoyl)piperidin-4-yl]-N-(imidazo[1,2-a]pyridin-7-ylmethyl)benzamide] | 5.96 nM | 104 nM | 0.483 nM
2 | CC[C@H](C)C(=O)NC1(c2ccc(C(=O)NCc3ccn4ccnc4c3)s2)COC1 [Example 408, N-(imidazo[1,2-a]pyridin-7-ylmethyl)-5-(3-{[(2S)-2-methylbutanoyl]amino}oxetan-3-yl)thiophene-2-carboxamide] | 19.2 nM | 276 nM | 0.725 nM
3 | O=C(NCc1ccn2ccnc2c1)Nc1ccc(C2CCN(C(=O)C3CCS(=O)(=O)CC3)CC2)cc1 [Example 243, 1-(4-{1-[(1,1-dioxidotetrahydro-2H-thiopyran-4-yl)carbonyl]piperidin-4-yl}phenyl)-3-(imidazo[1,2-a]pyridin-7-ylmethyl)urea] | 28 nM | 169 nM | 0.169 nM
4 | COCCOCC(=O)Nc1ccc(NC(=O)Nc2ccc3nccn3c2)cc1 [Example 42, N-{4-[(imidazo[1,2-a]pyridin-6-ylcarbamoyl)amino]phenyl}-2-(2-methoxyethoxy)acetamide] | 1590 nM | 697 nM | 0.381 nM
5 | O=C(NCc1ccn2ccnc2c1)c1ccc(OC2CCN(C(=O)c3ccccc3)CC2)cc1 [Example 415, 4-[(1-benzoylpiperidin-4-yl)oxy]-N-(imidazo[1,2-a]pyridin-7-ylmethyl)benzamide] | 234 nM | 1620 nM | 0.246 nM
6 | CC(C)(O)C(=O)N1CC=C(c2ccc(C(=O)NCc3ccc4nccn4c3)cc2)CC1 [Example 91, 4-[1-(2-hydroxy-2-methylpropanoyl)-1,2,3,6-tetrahydropyridin-4-yl]-N-(imidazo[1,2-a]pyridin-6-ylmethyl)benzamide] | 13.9 nM | 174 nM | 1.26 nM
7 | Cn1ccc(C(=O)N2CC(c3ccc(C(=O)NCc4ccn5ccnc5c4)cc3)C2)n1 [Example 642, N-(imidazo[1,2-a]pyridin-7-ylmethyl)-4-{1-[(1-methyl-1H-pyrazol-3-yl)carbonyl]azetidin-3-yl}benzamide] | 94.9 nM | 454 nM | 0.532 nM
8 | O=C(NCc1ccn2ccnc2c1)Nc1ccc(C2CCN(C(=O)[C@@H]3CCCO3)CC2)cc1 [Example 288, 1-(imidazo[1,2-a]pyridin-7-ylmethyl)-3-(4-{1-[(2S)-tetrahydrofuran-2-ylcarbonyl]piperidin-4-yl}phenyl)urea] | 8.11 nM | 49.5 nM | 0.568 nM

The remaining compounds from weak to strong by IC50 [1], led by results:

Row | IC50 [1] | IC50 [2] | IC50 [3] | SMILES
9 | 223 nM | 646 nM | 0.71 nM | O=C(NCc1ccn2ccnc2c1)c1ccc(C2CN(C(=O)c3cccnc3)C2)cc1 [Example 659, N-(imidazo[1,2-a]pyridin-7-ylmethyl)-4-[1-(pyridin-3-ylcarbonyl)azetidin-3-yl]benzamide]
10 | 65.9 nM | 243 nM | 0.266 nM | CC(C)C(=O)N1CC=C(c2ccc(NC(=O)Nc3ccc4nccn4c3)cc2)CC1 [Example 38, 1-imidazo[1,2-a]pyridin-6-yl-3-{4-[1-(2-methylpropanoyl)-1,2,3,6-tetrahydropyridin-4-yl]phenyl}urea]
11 | 36.2 nM | 6110 nM | 3.49 nM | O=C(NCc1ccc2nccn2c1)c1cnc(N(C[C@@H]2CCCO2)C(=O)C2CCOCC2)s1 [Example 150, N-(imidazo[1,2-a]pyridin-6-ylmethyl)-2-{[(2S)-tetrahydrofuran-2-ylmethyl](tetrahydro-2H-pyran-4-ylcarbonyl)amino}-1,3-thiazole-5-carboxamide]
12 | 0.839 nM | 23.6 nM | 0.638 nM | O=C(NCc1ccn2ccnc2c1)c1ccc(C2CCN(C(=O)c3cc(F)ccc3F)C2)s1 (stereo not drawn) [Example 785, 5-[1-(2,5-difluorobenzoyl)pyrrolidin-3-yl]-N-(imidazo[1,2-a]pyridin-7-ylmethyl)thiophene-2-carboxamide]
